# Measured values: patent US11534443B2, “Quinazoline compounds, preparation method, use, and pharmaceutical composition thereof” (INSTITUTE OF MATERIA MEDICA, CHINESE ACADEMY OF MEDICAL …, priority 2016, dated 2022)
# Experiments:
# [1] = tested on: human lung cancer cell NCI-H460; assay: Tumor cell viability by MTT assay; type: cell-based; details: Homo sapiens, NCI-H460, 96 h
# Method: After 24 hours, 100 μL of fresh medium containing different concentrations of test compounds and the corresponding solvent control was added into each well to a final concentration of DMSO less than 0.2%. Six to nine concentration groups were set for each test compound, and three parallel wells were set for each group. The plate was incubated at 5% CO2, 37° C. for 96 hours. 20 μL of freshly prepared PBS solution containing 5 mg/mL MTT was added to each well. The supernatant was discarded after incubation for another 4 hours. 150 μL DMSO was added to each well to dissolve the MTT formazan precipitate. After being mixed by a micro-oscillator, the optical density (OD) was measured at the wavelength of 570 nm, and the tumor cells treated with DMSO were used as a control group.
# PI3Kα = PI3Kα (Homo sapiens (Human), UniProt P42336); assay: Biochemical evaluation of activity of PI3Kα (Kinase-Glo luminescence kinase assay); details: 25 μM ATP, 50 μM PIP2, 1 h at room temperature
# Method: The potency of compounds in the present intention against PI3Kα was assessed by in vitro kinase assay. The kinase activity of PI3Kα was determined by detecting the level of ADP produced in the kinase reaction with luciferase-based luminescence detection.
# The Kinase-Glo™ Kinase Assay Kit was purchased from Promega. All assays were performed at room temperature using white OptiPlate™-384 well plate. The PI3Kα kinase was purchased from Invitrogen. The substrate was PIP2 from Invitrogen. The kinase buffer contained 50 mM Hepes (pH 7.5), 3 mM MgCl2, 100 mM NaCl, 1 mM EGTA, 0.03% CHAPS and 2 mM DTT. […] The substrate solution contained 100 μM PIP2 and 50 μM ATP. The test compound was diluted to 10 mM in 100% DMSO and serially diluted three times into ten different concentrations in 100% DMSO. The compound diluted in 100% DMSO was diluted 25-fold in 1×kinase buffer. 2.5 μL of the diluted compound solution and 2.5 μL PI3Kα kinase solution were added to each well of a 384-well plate. The reaction was initiated by addition of 5 μL substrate solution to each well. […] The plate was then covered and the reaction was allowed to proceed for one hour at room temperature, followed by the addition of 10 μL Kinase-Glo™ reagent to each well to stop the reaction.
# The percentage of inhibition was calculated as follows: Inhibition %=100−(max−sample RLU)/(max−min)*100
# wherein sample RLU was the luminescence reading for a given compound concentration, min was the reading of DMSO control, and max was the reading of the enzyme-free control. The IC50 value was calculated with the XLfit program in Excel.
# PI3Kα, sequence (P42336 whole entry): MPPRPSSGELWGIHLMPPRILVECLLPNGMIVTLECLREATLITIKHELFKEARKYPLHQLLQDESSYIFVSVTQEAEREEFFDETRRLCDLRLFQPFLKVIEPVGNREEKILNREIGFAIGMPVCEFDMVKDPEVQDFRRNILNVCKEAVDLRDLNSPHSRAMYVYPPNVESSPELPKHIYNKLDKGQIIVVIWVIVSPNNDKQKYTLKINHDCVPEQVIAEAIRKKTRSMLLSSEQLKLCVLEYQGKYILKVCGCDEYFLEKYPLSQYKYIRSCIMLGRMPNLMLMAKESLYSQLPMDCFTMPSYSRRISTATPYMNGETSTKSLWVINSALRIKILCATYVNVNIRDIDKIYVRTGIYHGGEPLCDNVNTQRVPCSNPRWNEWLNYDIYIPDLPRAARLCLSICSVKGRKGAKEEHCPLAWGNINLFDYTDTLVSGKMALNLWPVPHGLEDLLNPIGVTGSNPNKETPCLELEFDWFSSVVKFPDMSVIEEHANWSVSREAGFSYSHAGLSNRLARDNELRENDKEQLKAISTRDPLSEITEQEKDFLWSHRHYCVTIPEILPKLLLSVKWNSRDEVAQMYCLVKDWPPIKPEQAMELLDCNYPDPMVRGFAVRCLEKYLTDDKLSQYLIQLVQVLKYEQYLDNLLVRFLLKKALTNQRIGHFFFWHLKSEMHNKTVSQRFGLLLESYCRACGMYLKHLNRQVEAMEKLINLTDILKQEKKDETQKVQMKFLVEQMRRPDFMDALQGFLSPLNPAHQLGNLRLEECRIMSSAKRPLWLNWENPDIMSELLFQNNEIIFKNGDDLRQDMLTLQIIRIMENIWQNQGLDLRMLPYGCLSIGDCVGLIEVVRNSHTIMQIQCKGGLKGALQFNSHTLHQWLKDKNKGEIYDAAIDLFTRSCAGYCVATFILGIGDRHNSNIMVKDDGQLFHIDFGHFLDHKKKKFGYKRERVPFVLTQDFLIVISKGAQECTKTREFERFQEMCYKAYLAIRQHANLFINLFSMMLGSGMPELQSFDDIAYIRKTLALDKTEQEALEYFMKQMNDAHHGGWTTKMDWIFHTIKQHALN
# PI3Kα, sequence (P27986 whole entry partner): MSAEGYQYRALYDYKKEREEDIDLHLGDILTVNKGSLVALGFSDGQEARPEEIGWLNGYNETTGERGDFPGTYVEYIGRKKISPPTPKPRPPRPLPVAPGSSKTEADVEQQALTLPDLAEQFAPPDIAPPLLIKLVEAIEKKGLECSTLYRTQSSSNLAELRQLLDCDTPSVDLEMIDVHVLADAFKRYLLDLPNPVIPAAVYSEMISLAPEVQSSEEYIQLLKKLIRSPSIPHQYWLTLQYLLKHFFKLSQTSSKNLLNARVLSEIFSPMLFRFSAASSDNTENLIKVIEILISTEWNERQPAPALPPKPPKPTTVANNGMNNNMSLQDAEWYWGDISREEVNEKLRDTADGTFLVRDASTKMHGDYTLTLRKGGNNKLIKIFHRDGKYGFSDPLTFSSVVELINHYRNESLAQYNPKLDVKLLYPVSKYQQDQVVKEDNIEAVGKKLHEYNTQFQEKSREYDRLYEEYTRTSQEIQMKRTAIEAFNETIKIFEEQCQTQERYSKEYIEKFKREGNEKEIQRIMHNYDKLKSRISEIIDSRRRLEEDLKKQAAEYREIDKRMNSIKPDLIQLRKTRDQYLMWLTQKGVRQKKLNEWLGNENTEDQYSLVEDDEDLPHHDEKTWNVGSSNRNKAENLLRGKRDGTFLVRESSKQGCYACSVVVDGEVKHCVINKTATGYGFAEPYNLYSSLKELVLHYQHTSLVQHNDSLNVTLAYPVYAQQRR
SMILES,IC50 [1] [nM],IC50 (PI3Kα) [nM]
"COc1ncc(-c2cc(OC3CCC(F)(F)CC3)c3nc(N)nc(C)c3c2)cc1NS(=O)(=O)c1ccc(F)cc1F [Example 17, N-(5-(2-amino-8-((4,4-difluorocyclohexyl)oxy)-4-methylquinazolin-6-yl)-2-methoxypyridin-3-yl)-2,4-difluorobenzenesulfonamide]",83,2.3
"COc1ncc(-c2cc(OC3CCN(C)CC3)c3nc(N)nc(C)c3c2)cc1NS(=O)(=O)c1ccc(F)cc1F [Example 15, N-(5-(2-amino-4-methyl-8-((1-methylpiperidin-4-yl)oxy)quinazolin-6-yl)-2-methoxypyridin-3-yl)-2,4-difluorobenzenesulfonamide]",660,5.5
"COc1ncc(-c2cc(OC3CCCC3)c3ncnc(C)c3c2)cc1NS(=O)(=O)c1ccc(F)cc1F [Example 56, N-(5-(8-(cyclopentyloxy)-4-methylquinazolin-6-yl)-2-methoxypyridin-3-yl)-2,4-difluorobenzenesulfonamide]",73,0.92
"COc1ncc(-c2cc(OCC3CCOCC3)c3ncnc(C)c3c2)cc1NS(=O)(=O)c1ccc(F)cc1F [Example 53, N-(2-methoxy-5-(4-methyl-8-((tetrahydro-2H-pyran-4-yl)methoxy)quinazolin-6-yl)pyridin-3-yl)-2,4-difluorobenzenesulfonamide]",38,0.73
"COc1ncc(-c2cc(OC3CCC3)c3ncnc(C)c3c2)cc1NS(=O)(=O)c1ccc(F)cc1F [Example 70, N-(5-(8-cyclobutoxy-4-methylquinazolin-6-yl)-2-methoxypyridin-3-yl)-2,4-difluorobenzenesulfonamide]",22,0.9
"COc1ncc(-c2cc(O[C@H]3CC[C@H](OC)CC3)c3nc(N)nc(C)c3c2)cc1NS(=O)(=O)c1ccc(F)cc1F (single isomer, unassigned) [Example 18-1, N-(5-(2-amino-8-((4-methoxycyclohexyl)oxy)-4-methylquinazolin-6-yl)-2-methoxypyridin-3-yl)-2,4-difluorobenzenesulfonamide]",30,1.1
"COc1ncc(-c2cc(OC(C)C)c3nc(N)nc(C)c3c2)cc1NS(=O)(=O)c1ccc(F)cc1F [Example 26, N-(5-(2-amino-8-isopropoxy-4-methylquinazolin-6-yl)-2-methoxypyridin-3-yl)-2,4-difluorobenzenesulfonamide]",140,0.79
"COc1ncc(-c2cc(OCCN(C)C)c3ncnc(C)c3c2)cc1NS(=O)(=O)c1ccc(F)cc1F [Example 67, N-(5-(8-(2-(dimethylamino)ethoxy)-4-methylquinazolin-6-yl)-2-methoxypyridin-3-yl)-2,4-difluorobenzenesulfonamide]",3500,6.1
"COc1ncc(-c2cc(OC3CCC3)c3nc(N)nc(C)c3c2)cc1NS(=O)(=O)c1ccc(F)cc1F [Example 24, N-(5-(2-amino-8-cyclobutoxy-4-methylquinazolin-6-yl)-2-methoxypyridin-3-yl)-2,4-difluorobenzenesulfonamide]",–,0.8
"COc1ncc(-c2cc(OC3CCOCC3)c3ncnc(C)c3c2)cc1NS(=O)(=O)c1ccc(Cl)s1 [Example 46, N-(2-methoxy-5-(4-methyl-8-((tetrahydro-2H-pyran-4-yl)oxy)quinazolin-6-yl)pyridin-3-yl)-5-chlorothiophene-2-sulfonamide]",29,0.7
"COc1ncc(-c2cc(OCC3CCOCC3)c3nc(N)nc(C)c3c2)cc1NS(=O)(=O)c1ccc(F)cc1F [Example 13, N-(5-(2-amino-4-methyl-8-((tetrahydro-2H-pyran-4-yl)methoxy)quinazolin-6-yl)-2-methoxypyridin-3-yl)-2,4-difluorobenzenesulfonamide]",21,0.84
"CCNc1nc(C)c2cc(-c3cnc(OC)c(NS(=O)(=O)c4ccc(F)cc4F)c3)cc(OC3CCOCC3)c2n1 [Example 30, N-(5-(2-(ethylamino)-4-methyl-8-((tetrahydro-2H-pyran-4-yl)oxy)quinazolin-6-yl)-2-methoxypyridin-3-yl)-2,4-difluorobenzenesulfonamide]",240,1.3
"COc1ncc(-c2cc(OCC3CCCO3)c3nc(N)nc(C)c3c2)cc1NS(=O)(=O)c1ccc(F)cc1F (stereo not shown) [Example 20, N-(5-(2-amino-4-methyl-8-((tetrahydrofuran-2-yl)methoxy)quinazolin-6-yl)-2-methoxypyridin-3-yl)-2,4-difluorobenzenesulfonamide]",–,1.3
"COc1ncc(-c2cc(OC3CCOCC3)c3nc(NC(C)=O)nc(C)c3c2)cc1NS(=O)(=O)c1ccc(F)cc1F [Example 42, N-(6-(5-(2,4-difluorophenylsulfonamido)-6-methoxypyridin-3-yl)-4-methyl-8-((tetrahydro-2H-pyran-4-yl)oxy)quinazolin-2-yl)acetamide]",530,1.1
"CNc1nc(C)c2cc(-c3cnc(OC)c(NS(=O)(=O)c4ccc(F)cc4Cl)c3)cc(O[C@@H]3CCOC3)c2n1 [Example 33, (R)—N-(2-methoxy-5-(4-methyl-2-(methylamino)-8-((tetrahydrofuran-3-yl)oxy)quinazolin-6-yl)pyridin-3-yl)-2-chloro-4-fluorobenzenesulfonamide]",100,1.7
"COc1ncc(-c2cc(OC3CCCC3)c3nc(N)nc(C)c3c2)cc1NS(=O)(=O)c1ccc(F)cc1F [Example 23, N-(5-(2-amino-8-(cyclopentyloxy)-4-methylquinazolin-6-yl)-2-methoxypyridin-3-yl)-2,4-difluorobenzenesulfonamide]",–,1.1
"COc1ncc(-c2cc(OC3CCOCC3)c3nc(N)nc(C)c3c2)cc1NS(=O)(=O)c1ccc(F)cc1 [Example 3, N-(5-(2-amino-4-methyl-8-((tetrahydro-2H-pyran-4-yl)oxy)quinazolin-6-yl)-2-methoxypyridin-3-yl)-4-fluorobenzenesulfonamide]",96,–
"COc1ncc(-c2cc(OCCN3CCOCC3)c3ncnc(C)c3c2)cc1NS(=O)(=O)c1ccc(F)cc1F [Example 65, N-(2-methoxy-5-(4-methyl-8-(2-morpholinoethoxy)quinazolin-6-yl)pyridin-3-yl)-2,4-difluorobenzenesulfonamide]",630,–
"CNc1nc(C)c2cc(-c3cnc(OC)c(NS(=O)(=O)c4ccc(F)cc4F)c3)cc(O[C@H]3CCOC3)c2n1 [Example 35, (S)—N-(2-methoxy-5-(4-methyl-2-(methylamino)-8-((tetrahydrofuran-3-yl)oxy)quinazolin-6-yl)pyridin-3-yl)-2,4-difluorobenzenesulfonamide]",–,1.8
"COc1ncc(-c2cc(OC3CCOCC3)c3nc(N)nc(C)c3c2)cc1NS(=O)(=O)c1ccc(Cl)s1 [Example 4, N-(5-(2-amino-4-methyl-8-((tetrahydro-2H-pyran-4-yl)oxy)quinazolin-6-yl)-2-methoxypyridin-3-yl)-5-chlorothiophene-2-sulfonamide]",–,0.74
"COc1ncc(-c2cc(OC3CCOC(C)(C)C3)c3nc(N)nc(C)c3c2)cc1NS(=O)(=O)c1ccc(F)cc1F (stereo not shown) [Example 19, N-(5-(2-amino-8-((2,2-dimethyltetrahydro-2H-pyran-4-yl)oxy)-4-methylquinazolin-6-yl)-2-methoxypyridin-3-yl)-2,4-difluorobenzenesulfonamide]",–,1
"CNc1nc(C)c2cc(-c3cnc(OC)c(NS(=O)(=O)c4ccc(F)cc4F)c3)cc(OC3CCC3)c2n1 [Example 41, N-(5-(8-cyclobutoxy-4-methyl-2-(methylamino)quinazolin-6-yl)-2-methoxypyridin-3-yl)-2,4-difluorobenzenesulfonamide]",–,5
"CNc1nc(C)c2cc(-c3cnc(OC)c(NS(=O)(=O)c4ccc(F)cc4F)c3)cc(OC3CCCC3)c2n1 [Example 40, N-(5-(8-(cyclopentyloxy)-4-methyl-2-(methylamino)quinazolin-6-yl)-2-methoxypyridin-3-yl)-2,4-difluorobenzenesulfonamide]",–,8.5
"COc1ncc(-c2cc(OCC3CCOC3)c3nc(N)nc(C)c3c2)cc1NS(=O)(=O)c1ccc(F)cc1F (stereo not shown) [Example 21, N-(5-(2-amino-4-methyl-8-((tetrahydrofuran-3-yl)methoxy)quinazolin-6-yl)-2-methoxypyridin-3-yl)-2,4-difluorobenzenesulfonamide]",–,1
